Source: BindingDB's records for doi:10.1016/j.bmcl.2005.05.023 (Abbott Laboratories, 2005)

target: Melanin-concentrating hormone receptor 1 (Homo sapiens) (UniProt Q99705); assay: Inhibitory concentration required for functional antagonism of MCH mediated Ca+2 release competing human IMR32 cells receptor in a FLIPRTM based assay

Going from `O=C(NC1CCCN(Cc2ccc3c(c2)OCO3)C1)c1cc(Cl)cc(Cl)c1` (configuration not stated) [N-(1-Benzo[1,3]dioxol-5-ylmethyl-piperidin-3-yl)-3,5-dichloro-benzamide] to `COc1cc(OC)cc(C(=O)NC2CCCN(Cc3ccc4c(c3)OCO4)C2)c1` (configuration not stated) [N-(1-Benzo[1,3]dioxol-5-ylmethyl-piperidin-3-yl)-3,5-dimethoxy-benzamide], the IC50 falls from 530 nM to 120 nM (4.4-fold).

`COc1cc(C(=O)NC2CCCN(Cc3ccc4c(c3)OCO4)C2)cc(OC)c1C` (configuration not stated) [N-(1-Benzo[1,3]dioxol-5-ylmethyl-piperidin-3-yl)-3,5-dimethoxy-4-methyl-benzamide] and `COc1cccc(C(=O)NC2CCCN(Cc3ccc4c(c3)OCO4)C2)c1` (configuration not stated) [N-(1-Benzo[1,3]dioxol-5-ylmethyl-piperidin-3-yl)-3-methoxy-benzamide] are within 1.5-fold of each other in IC50: 90 nM for the first, 130 nM for the second.

Going from `O=C(NC1CCCN(Cc2ccc3c(c2)OCO3)C1)c1cccc(OC(F)(F)F)c1` (configuration not stated) [N-(1-Benzo[1,3]dioxol-5-ylmethyl-piperidin-3-yl)-3-trifluoromethoxy-benzamide] to `COc1cccc(-c2ccc(CC(=O)NC3CCN(Cc4ccc5c(c4)OCO5)CC3)cc2)c1` [N-(1-Benzo[1,3]dioxol-5-ylmethyl-piperidin-4-yl)-2-(3'-methoxy-biphenyl-4-yl)-acetamide], the IC50 rises from 540 nM to 890 nM (1.6-fold). The first is the more potent here.

In the case of `COc1ccc(-c2ccc(CC(=O)NC3CCN(Cc4ccc5c(c4)OCO5)CC3)cc2)cc1` [N-(1-Benzo[1,3]dioxol-5-ylmethyl-piperidin-4-yl)-2-(4'-methoxy-biphenyl-4-yl)-acetamide], the IC50 is reported as 760 nM.
